Experimental data reported in article PMC10254045, “Elaboration of the Effective Multi-Target Therapeutic Platform for the Treatment of Alzheimer’s Disease Based on Novel Monoterpene-Derived Hydroxamic Acids” (International Journal of Molecular Sciences, 2023).
Where two headings read alike, the source gives them in different places.

What was measured:
HDAC6 = target: T1, HDAC6 (Homo sapiens, UniProt Q9UBN7); experiment: Fluorimetric measurement of HDAC6 activity (FLUOR DE LYS kit); type: biochemical; conditions: for ability to inhibit the enzymatic activity of HDAC6: in words
T1 construct: purchased Enzo Life Sciences
T1 sequence (Q9UBN7 1-1215): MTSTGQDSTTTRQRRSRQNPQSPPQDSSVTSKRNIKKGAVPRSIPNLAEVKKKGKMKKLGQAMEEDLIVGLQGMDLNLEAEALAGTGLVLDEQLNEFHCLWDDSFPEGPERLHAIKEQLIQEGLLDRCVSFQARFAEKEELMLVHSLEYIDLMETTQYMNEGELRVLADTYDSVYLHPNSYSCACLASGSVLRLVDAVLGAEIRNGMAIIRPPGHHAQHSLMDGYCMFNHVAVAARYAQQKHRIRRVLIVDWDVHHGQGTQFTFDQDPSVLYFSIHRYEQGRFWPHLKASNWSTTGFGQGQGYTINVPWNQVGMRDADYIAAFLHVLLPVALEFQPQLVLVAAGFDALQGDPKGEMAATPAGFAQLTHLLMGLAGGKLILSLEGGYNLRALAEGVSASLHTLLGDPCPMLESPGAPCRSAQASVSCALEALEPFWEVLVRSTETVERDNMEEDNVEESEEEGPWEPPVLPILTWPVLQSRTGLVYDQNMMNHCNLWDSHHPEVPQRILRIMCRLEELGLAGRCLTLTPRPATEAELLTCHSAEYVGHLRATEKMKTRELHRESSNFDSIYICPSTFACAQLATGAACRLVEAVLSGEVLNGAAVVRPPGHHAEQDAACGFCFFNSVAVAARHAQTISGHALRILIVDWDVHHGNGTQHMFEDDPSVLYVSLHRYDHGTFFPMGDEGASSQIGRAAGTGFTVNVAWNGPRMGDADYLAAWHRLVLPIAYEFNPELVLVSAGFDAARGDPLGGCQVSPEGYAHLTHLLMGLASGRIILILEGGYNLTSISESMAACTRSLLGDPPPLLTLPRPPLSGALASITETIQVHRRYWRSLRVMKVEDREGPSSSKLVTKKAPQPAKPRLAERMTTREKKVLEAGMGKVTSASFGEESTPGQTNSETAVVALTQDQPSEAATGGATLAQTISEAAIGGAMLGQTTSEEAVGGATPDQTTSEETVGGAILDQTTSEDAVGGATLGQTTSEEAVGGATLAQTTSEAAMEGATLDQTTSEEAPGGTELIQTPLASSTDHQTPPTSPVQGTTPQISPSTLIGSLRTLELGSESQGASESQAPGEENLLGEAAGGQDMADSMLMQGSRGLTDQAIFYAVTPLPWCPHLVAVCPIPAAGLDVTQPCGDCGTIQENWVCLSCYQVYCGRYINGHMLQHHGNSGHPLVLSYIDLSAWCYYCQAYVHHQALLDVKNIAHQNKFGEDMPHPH

[1] = DPPH radical scavenging activity; conditions: Trolox equivalent; compounds and Trolox 100 µM
Source text: (§1) DPPH is a stable chromogen radical, which is widely used to assess the antioxidant activity of biological objects, in particular when searching for potential therapeutic agents used to maintain the redox balance in the body and treat pathologies associated with the action of free radicals. In turn, the oxygen radical absorbance capacity (ORAC) analysis is based on the removal by potential antioxidants of peroxyl radicals generated by AAPH (2,2’-axobis-2-methyl-propanimidamide, dihydrochloride), preventing the degradation of the fluorescein probe.
The measurement of the antiradical activity of synthesized hydroxamic acids was carried out using the method described in [150]. The studied compounds were introduced into the wells of a 96-well black tablet (the final concentration was 100 microns), after which a freshly prepared solution of 2,2-diphenyl-1-picrylhydrazyl (Sigma Aldrich, St. Louis, Missouri, USA) was added. After the incubation time had elapsed, the DPPH radical-scavenging activity was measured using a multifunctional Cytation™3 tablet analyzer (BioTek Instruments, Inc., Winooski, VT, USA) at λ = 517 nm by the difference in the reduction of the DPPH radical peak between control samples containing an equivalent volume of solvent and samples with the substances under study.

[2] = Oxygen radical absorbance capacity (ORAC); conditions: Trolox equivalent; compounds and Trolox 100 µM, AAPH 12 mM
Source text: as §1
The analysis of the absorption capacity of oxygen radicals was performed as described in [151], with some modifications. Trolox (Sigma Aldrich, St. Louis, MI, USA) was used as a standard antioxidant. The studied compounds were introduced into the holes of a 96-hole black tablet with a transparent bottom with Trolox (25 µL; the final concentration was 100 µM) and fluorescein (150 µL; the final concentration was 80 nM, Sigma Aldrich, St. Louis, MI, USA). The resulting mixture was shaken and incubated for 30 min at 37 °C. After a 30-min incubation period, a solution of 2,2’-azobis (2-amidinopropane) dihydrochloride (AAPH) (25 µL; final concentration of 12 mM, Sigma Aldrich, St. Louis, MI, USA) was quickly introduced into all wells of the tablet. The tablet was immediately placed in a multifunctional tablet analyzer Cytation™ 3 (BioTek Instruments, Inc., Winooski, VT, USA). The fluorescence intensity was recorded for 300 min at λex = 480 nm, λem = 520 nm with an interval of every 5 min. In the same experiment, calibration solutions for the reference antioxidant Trolox were used to confirm the validity of the use of this method (0, 6.25, 12.5, 25, 50 and 100 µM).

Cell viability, MTT test = type: cell-based; conditions: human, SH-SY5Y neuroblastoma cells, 24-h exposure, read-out: IC50 cytotoxic action
Method: The culture of human neuroblastoma cells (defined as SH-SY5Y) was cultured in DMEM with the addition of embryonic bovine serum (10%), 2 mM glutamine (DiaM, Moscow, Russia) and penicillin-streptomycin (100 U/Ml–100 µg/mL, PanEco, Moscow, Russia) in conditions of 5% CO2 in the air at 37 °C. Upon reaching 80% confluence, cells in the amount of 1 × 10^4 were placed in 96-well transparent plates and incubated under the same conditions for 24 h. After the incubation time, the cells were exposed to a 24-h exposure to various concentrations of hydroxamic acids dissolved in dimethyl sulfoxide (range from 1 to 100 µM). An equivalent volume of solvent was used as a control (final DMSO content = 1%).
Cell survival analysis was performed using MTT test. To do this, 3-(4,5-dimethylthiazol-2-yl)-2,5-diphenyltetrazolium bromide (MTT, 5 mg/mL, DiaM, Moscow, Russia) was introduced into all wells and incubated at 37 °C for 2 h to restore metabolically active cells of the yellow tetrazolium salt MTT to purple formazane crystals. The resulting formazane was then re-suspended in 200 µL DMSO per well. The optical density was recorded using a multifunctional Cytation™3 flatbed analyzer (BioTek Instruments, Inc., Winooski, VT, USA) at λ = 530 nm.

[3] = target: T2, β-amyloid peptide 1-42 (Aβ1-42) (Homo sapiens, UniProt P05067); experiment: Thioflavin T fluorescent analysis of Aβ1-42 aggregation; type: biochemical; conditions: 48 h, compounds 100 µM, Thioflavin T 10 µM, 48 h registration; read-out: prevention of the aggregation of Aβ1-42
T2 construct: the pathological form of β-amyloid peptide 1-42 (Sigma Aldrich); purchased Sigma Aldrich
Source text: The aggregation process of β-amyloid peptide 1-42 (Aβ1-42), caused by hydrophobic interactions of peptide monomers and, as a consequence, the formation of the most toxic polymorphic structure-oligomeric fragments of Aβ, was detected using the fluorescent dye Thioflavin T (Figure 4a). This method is the most widely used for selective staining and the identification of amyloid aggregates, which is confirmed by a large number of works. Fluorescence analysis using Thioflavin T made it possible to monitor the aggregation process of the pathological form of β-amyloid peptide 1-42 (Sigma Aldrich, St. Louis, MI, USA). The experimental protocol was carried out similarly to that described in [58] with some modifications. The registration of changes in the fluorescence of thioflavin T (10 µM, Sigma Aldrich, St. Louis, MI, USA) was performed on a multifunctional tablet analyzer Cytation™3 (BioTek Instruments, Inc., Winooski, VT, USA) at λex = 450 nm, λem = 480 nm. The fluorescence intensity of the solution without Aβ1-42 was subtracted from the fluorescence values of solutions containing protein, due to the need to subtract the background fluorescence.

[4] = Table 1, read-out: HDAC6-Inhibitory Effect, IC50

T2 sequence (P05067 672-713 limits assumed): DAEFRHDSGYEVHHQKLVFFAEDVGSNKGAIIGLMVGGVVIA

Structure (SMILES)	IC50 (HDAC6; [4]) [µM]	ability to inhibit the enzymatic activity of HDAC6 (HDAC6)	DPPH value (TE) [1] [TE]	ORAC value (TE) [2] [TE]	IC50 at 24 h (Cell viability, MTT test) [µM]	IC50 (HDAC6; HDAC6, values as listed in Table S1 beside docking score, read-out: IC50) [µM]	inhibition at 100 µM [3] [%]	melting point [°C]
CC1(C)[C@H]2CC=C(C(=O)NO)[C@@H]1C2 [(-)-19, (1R,5S)-N-Hydroxy-6,6-dimethylbicyclo [3.1.1]hept-2-ene-2-carboxamide]	> 100	no significant ability	0.15	0.85	> 100	–	–	–
CC1=CC[C@@H](CC(=O)NO)C1(C)C [(+)-13, (S)-N-Hydroxy-2-(2,2,3-trimethylcyclopent-3-en-1-yl)acetamide]	> 100	no significant ability	0.26	0.94	> 100	–	–	–
CC1(C)[C@H]2CC[C@@H](CNC(=O)c3ccc(/C=C/C(=O)NO)cc3)[C@@H]1C2 [Compound 38c, N-(((1S,2R,5S)-6,6-dimethylbicyclo[3.1.1]heptan-2-yl)methyl)-4-((E)-3-(hydroxyamino)-3-oxoprop-1-en-1-yl)benzamide]	–	–	0.70	1.02	90.5 ± 2.9	8.03	≤ 40	108.6
CC1(C)[C@H]2CC[C@@H](CNC(=O)/C=C/c3ccc(C(=O)NO)cc3)[C@@H]1C2 [Compound 35c, 4-((E)-3-((((1S,2R,5S)-6,6-dimethylbicyclo[3.1.1]heptan-2-yl)methyl)amino)-3-oxoprop-1-en-1-yl)-N-hydroxybenzamide]	6.9 ± 0.43	–	0.71	1.02	86.7 ± 1.45	–	≤ 40	139.5 to 141.4
CC(C)c1ccc(CNC(=O)c2ccc(/C=C/C(=O)NO)cc2)cc1 [Compound 38b, (E)-4-(3-(hydroxyamino)-3-oxoprop-1-en-1-yl)-N-(4-isopropylbenzyl)benzamide]	4.78 ± 0.04	–	0.79	1.04	> 100	–	63.9	160.3 to 164.9
CC(C)c1ccc(CNC(=O)/C=C/c2ccc(C(=O)NO)cc2)cc1 [Compound 35b, (E)-N-hydroxy-4-(3-((4-isopropylbenzyl)amino)-3-oxoprop-1-en-1-yl)benzamide]	8.23 ± 0.4	–	0.50	1.00	> 100	–	59.9	187.4 to 189.7
CC1=CC[C@H](CC(=O)NO)C1(C)C [(-)-13, (R)-N-Hydroxy-2-(2,2,3-trimethylcyclopent-3-en-1-yl)acetamide]	> 100	no significant ability	0.39	0.93	> 100	–	–	–
CC(C)CCCC(C)CC(=O)NO (stereo not shown) [Compound 8, N-Hydroxy-3,7-dimethyloctanamide]	> 100	no significant ability	0.36	0.83	> 100	–	–	–
CC1(C)[C@@H]2CC=C(C(=O)NO)[C@H]1C2 [(+)-19, (1S,5R)-N-Hydroxy-6,6-dimethylbicyclo [3.1.1]hept-2-ene-2-carboxamide]	> 100	no significant ability	0.50	1.02	> 100	–	–	–
CC(CCCC(C)(C)O)CC(=O)NO (stereo not shown) [Compound 5, N,7-dihydroxy-3,7-dimethyloctanamide]	> 100	no significant ability	0.17	0.88	> 100	–	–	–
CC(C)=CCCC(C)CC(=O)NO (stereo not shown) [Compound 10, N-Hydroxy-3,7-dimethyloct-6-enamide]	> 100	no significant ability	0.19	0.84	> 100	–	–	–
C=C(C)[C@@H]1CC=C(C(=O)NO)CC1 [Compound 16, (S)-N-Hydroxy-4-(prop-1-en-2-yl)cyclohex-1-enecarboxamide]	87.4 ± 2.33	no significant ability	0.23	0.87	> 100	–	–	–
